The text below walks through data of patent US7531320B2, “Modulation of β-catenin/TCF-activated transcription” (priority 2003, dated 2009).

The test system of this experiment is fra-1. The experiment in a line: Real Time RT-PCR in SW480 cells, fra-1. The experiment is classed as cell-based, human. The note with it: 25 μM; for ΔCT fra-1: relative to β-actin. On the procedure: The RNeasy Midi Kit (Qiagen) was used for RNA extraction and Real Time RT-PCR was performed according to the protocol provided with the SYBR Green PCR Master Mix Kit (Perkin Elmer Biosystems, Shelton, Conn.). The primers used for cyclin D1, axin2, hnkd, c-myc, c-jun, and fra-1 amplifications were: cyclin D1 forward primer:5′-[…]-CCTGCTG-3′ (SEQ ID NO: 32) reverse primer: 5′-[…]-3′ (SEQ ID NO: 33) leading to a product size of approximately 300 bp; axin2 forward primer: 5′-[…] GGAAA-CT-3′ (SEQ ID NO: 34) and reverse primer: 5′-[…]-GAGA-3′ (SEQ ID NO: 35); hnkd forward primer: 5′-[…] TTGCGT-3′ (SEQ ID NO: 36) and the reverse primer: 5′-[…] ACGT-3′ (SEQ ID NO: 37); c-myc forward primer: 5′-GAA-[…] CTGC-3′ (SEQ ID NO: 38) and reverse primer: 5′-[…]-G-3′ (SEQ ID NO: 39); c-jun forward primer: 5′-[…]-3′ (SEQ ID NO: 40) and reverse primer: 5′-[…]-3′ (SEQ ID NO: 41); fra-1 forward primer: 5′-ACC-[…]-[…]-3′ (SEQ ID NO: 42) and reverse primer: 5′-[…]-TT-3′ (SEQ ID NO: 43). β-actin was used for normalization. […]
1 μg of mRNA, for each time point, was subjected to Real Time RT-PCR. Expression level of endogenous cyclin D1, c-myc, fibronectin, hnkd, axin2, c-jun, and BMP-4 were measured relative to β-actin. Quantitation of The ΔCycle of Threshold (CT) values was determined by subtracting the average values of each set by the corresponding average values obtained for β-actin. […]
The cyclin D1 gene is inappropriately expressed in many different tumor types, and is known to be a direct target of the Wnt/β-catenin pathway (Shtutman et al., “The cyclin D1 gene is a target of the beta-catenin/LEF-1 pathway,” Proc. Natl. Acad. Sci. USA 96:5522-27 (1999); Tetsu et al., “Beta-catenin regulates expression of cyclin D1 in colon carcinoma cells,” Nature 398:422-26 (1999)). […] Expression level of endogenous cyclin D1, c-myc, fibronectin, hnkd, axin2, c-jun, and BMP-4 were measured relative to β-actin. Quantitation of The ΔCycle of Threshold (CT) values was determined by subtracting the average values of each set by the corresponding average values obtained for β-actin. […]
In general terms: Quantitative PCR measures a nucleic acid by following its amplification.

Regarding `O=C1C(Cc2ccc(O)cc2)N2C(=O)CCN(C(=O)NCc3ccccc3)C2CN1Cc1cccc2ccccc12` (stereo not drawn) [COMPOUND 1], the “mRNA fra-1 (direction)” value is “↑”. Besides, under “4 hours”, the “ΔCT fra-1” value is reported as −1.0. Further, the “ΔCT fra-1” value (8 hours) was −1.4.
